{"source": "paper PMC5716991", "about": "“The anthelmintic praziquantel is a human serotoninergic G-protein-coupled receptor ligand” (Nature Communications, 2017)", "biological_target": "T1, 5-HT2B receptor (Homo sapiens, UniProt P41595)", "T1 construct": "gene HTR2B", "T1 sequence (P41595 whole entry)": "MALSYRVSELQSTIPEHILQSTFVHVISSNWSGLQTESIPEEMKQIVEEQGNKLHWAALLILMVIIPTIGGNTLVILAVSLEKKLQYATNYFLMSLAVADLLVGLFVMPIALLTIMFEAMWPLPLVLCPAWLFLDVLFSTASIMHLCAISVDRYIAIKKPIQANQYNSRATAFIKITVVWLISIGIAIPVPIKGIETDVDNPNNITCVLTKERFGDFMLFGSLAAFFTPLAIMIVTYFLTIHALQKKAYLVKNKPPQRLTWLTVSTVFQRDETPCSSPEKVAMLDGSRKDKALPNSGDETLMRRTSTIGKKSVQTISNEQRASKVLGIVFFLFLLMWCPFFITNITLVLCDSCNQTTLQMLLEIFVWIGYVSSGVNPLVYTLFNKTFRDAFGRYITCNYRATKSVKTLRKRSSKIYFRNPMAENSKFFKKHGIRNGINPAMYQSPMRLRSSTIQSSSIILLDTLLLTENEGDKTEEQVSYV", "assay": "[3H]-LSD radioligand displacement at […] (PDSP primary screen); partial agonist in Ca2+ flux", "assay_type": "binding", "data": [{"compound": "O=C(C1CCCCC1)N1CC(=O)N2CCc3ccccc3[C@@H]2C1", "note": "[(R)-PZQ]", "values": [{"measurement": "[3H]-LSD radioligand displacement at 5 μM (PDSP primary screen); partial agonist", "result": "the human 5-HT2B receptor (5-HT2BR)—where inhibition seen with (±)-PZQ was attributable solely to (R)-PZQ"}]}]}
